Laboratory results from US20170304530A1, “INFUSION PREPARATION” (priority 2010, published 2017).
Counter-ions that a name gives are not always drawn.

Experiment: Remaining amount of each vitamin after 6 months storage at room temperature, measured by HPLC
Format: physicochemical
Details: vitamin in Example 3 infusion preparation before mixing, stored at room temperature for 6 months
Description: The infusion preparation (before mixing the first-chamber. infusion and the second-chamber infusion) was stored at room temperature for 6 months. Thereafter, the amount of each vitamin component contained in the first-chamber infusion or the second-chamber infusion was measured using HPLC. […] As is clear from the results, each of the vitamin components can be stably present in the infusion preparation even after 6 months storage.

Compound | Remaining rate after 6 months storage (%)
O=C1O[C@H]([C@@H](O)CO)C(O)=C1O [Ascorbic acid] | 99.9%
NC(=O)c1cccnc1 [Nicotinamide] | 99.6%
Nc1nc2ncc(CNc3ccc(C(=O)N[C@@H](CCC(=O)O)C(=O)O)cc3)nc2c(=O)[nH]1 [Folic acid] | 100.0%
Cyanocobalamin | 103.2%
Cc1ncc(CO)c(CO)c1O.Cl [Pyridoxine hydrochloride] | 99.3%
O=C(O)CCCC[C@@H]1SC[C@@H]2NC(=O)N[C@@H]21 [Biotin] | 97.8%
C=C1CC[C@H](O)C/C1=C/C=C1\CCC[C@]2(C)[C@@H]([C@H](C)CCCC(C)C)CC[C@@H]12 [Cholecalciferol] | 100.5%

Continued, values first:

Remaining rate after 6 months storage (%) | Compound
101.5% | CC1=C(C/C=C(\C)CCC[C@H](C)CCC[C@H](C)CCCC(C)C)C(=O)c2ccccc2C1=O [Phytonadione]
99.0% | CC(=O)Oc1c(C)c(C)c2c(c1C)CCC(C)(CCC[C@H](C)CCC[C@H](C)CCCC(C)C)O2 (stereo partly drawn) [Tocopherol acetate]
98.7% | Cc1ncc(C[n+]2csc(CCO)c2C)c(N)n1 [Thiamine chloride hydrochloride]
100.1% | Cc1cc2nc3c(=O)[nH]c(=O)nc-3n(C[C@H](O)[C@H](O)[C@H](O)COP(=O)(O)O)c2cc1C [Riboflavin sodium phosphate]
100.4% | CC(C)(CO)[C@@H](O)C(=O)NCCCO [Panthenol]
